Among the data in patent US10870647B2, “Imidazopyridine derivative, method for preparing same, and pharmaceutical composition containing same as active ingredient for preventing or treating cancer” (DAEGU-GYEONGBUK MEDICAL INNOVATION FOUNDATION, priority 2016, dated 2020) are remaining binding values, retold here.

Holding throughout (assay): Kinase selectivity, scanMAX Kinase assay panel (DiscoverX), % control at 1 uM
Holding throughout (type): binding

Assay [1] has as its target T1, scanMAX Kinase assay panel (Homo sapiens, UniProt O00444).
T1 construct: purchased DiscoverX
T1 sequence (O00444 1-970): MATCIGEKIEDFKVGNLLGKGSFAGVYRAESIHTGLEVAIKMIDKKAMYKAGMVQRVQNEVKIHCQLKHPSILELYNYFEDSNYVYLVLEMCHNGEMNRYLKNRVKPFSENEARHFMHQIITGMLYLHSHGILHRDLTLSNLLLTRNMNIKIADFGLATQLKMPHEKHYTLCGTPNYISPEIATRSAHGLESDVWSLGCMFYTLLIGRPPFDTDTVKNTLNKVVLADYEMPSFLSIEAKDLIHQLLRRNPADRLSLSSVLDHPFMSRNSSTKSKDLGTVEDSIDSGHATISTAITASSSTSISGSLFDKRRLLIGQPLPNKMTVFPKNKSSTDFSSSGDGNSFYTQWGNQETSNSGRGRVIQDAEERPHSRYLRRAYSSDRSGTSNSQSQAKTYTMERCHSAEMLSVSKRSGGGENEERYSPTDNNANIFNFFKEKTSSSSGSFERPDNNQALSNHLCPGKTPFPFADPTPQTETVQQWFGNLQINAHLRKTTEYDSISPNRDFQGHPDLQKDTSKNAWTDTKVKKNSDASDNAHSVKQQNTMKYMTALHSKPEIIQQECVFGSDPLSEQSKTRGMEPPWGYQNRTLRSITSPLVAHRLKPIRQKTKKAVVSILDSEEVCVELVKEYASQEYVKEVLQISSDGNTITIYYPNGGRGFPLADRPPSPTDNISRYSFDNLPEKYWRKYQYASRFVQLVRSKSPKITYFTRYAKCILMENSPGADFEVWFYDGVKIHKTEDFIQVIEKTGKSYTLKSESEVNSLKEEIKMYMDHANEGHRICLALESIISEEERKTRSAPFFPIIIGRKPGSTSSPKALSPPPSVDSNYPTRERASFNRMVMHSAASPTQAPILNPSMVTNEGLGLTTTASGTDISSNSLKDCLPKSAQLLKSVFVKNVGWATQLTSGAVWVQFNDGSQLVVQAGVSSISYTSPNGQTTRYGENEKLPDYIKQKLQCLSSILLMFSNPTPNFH
The conditions noted are these: PLK4; 1 uM; read-out: Percent Control (%). A digest of the protocol:
(§1)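 Binding across the scanMAX kinase panel was tested at 1 uM compound. % control = (compound − positive control)/(negative control − positive control) × 100; below 35 counted as active.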

For assay [2], the target named is T2, scanMAX Kinase assay panel (Homo sapiens, UniProt P00519, Q252H).
T2 construct: purchased DiscoverX
The conditions noted are these: 1 uM, read-out: Percent Control (%). The method in brief:
as §1

For assay [3], the target named is T3, scanMAX Kinase assay panel (Homo sapiens, UniProt P07333).
T3 construct: purchased DiscoverX
The conditions noted are these: 1 uM, read-out: Percent Control (%). The method in brief:
as §1

Assay [4] has as its target T4, scanMAX Kinase assay panel (Homo sapiens, UniProt P14616).
T4 construct: purchased DiscoverX
The conditions noted are these: INSRR; 1 uM; read-out: Percent Control (%). The method in brief: as §1

Assay [5] deals with T5, scanMAX Kinase assay panel (Homo sapiens, UniProt P36896).
T5 construct: purchased DiscoverX
T5 sequence (P36896 24-505): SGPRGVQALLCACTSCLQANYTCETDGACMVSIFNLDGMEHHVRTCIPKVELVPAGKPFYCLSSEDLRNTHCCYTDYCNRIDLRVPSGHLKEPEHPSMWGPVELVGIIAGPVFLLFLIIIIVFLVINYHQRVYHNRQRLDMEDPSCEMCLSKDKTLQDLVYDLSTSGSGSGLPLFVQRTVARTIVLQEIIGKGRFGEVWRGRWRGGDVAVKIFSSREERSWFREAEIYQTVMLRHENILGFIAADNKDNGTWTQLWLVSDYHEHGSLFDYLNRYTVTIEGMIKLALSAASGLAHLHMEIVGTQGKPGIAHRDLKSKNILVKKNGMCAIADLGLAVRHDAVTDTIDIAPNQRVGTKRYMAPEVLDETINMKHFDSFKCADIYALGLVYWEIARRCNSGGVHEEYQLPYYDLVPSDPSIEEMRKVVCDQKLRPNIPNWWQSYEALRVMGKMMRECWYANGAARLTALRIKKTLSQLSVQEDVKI
The conditions noted are these: ACVR1B; 1 uM; read-out: Percent Control (%). A digest of the protocol:
as §1

For assay [6], the target named is T6, scanMAX Kinase assay panel (Homo sapiens, UniProt P49759).
T6 construct: purchased DiscoverX
The conditions noted are these: CLK1; 1 uM; read-out: Percent Control (%). A digest of the protocol:
as §1

The target in assay [7] is T7, scanMAX Kinase assay panel (Homo sapiens, UniProt Q13554).
T7 construct: purchased DiscoverX
The conditions noted are these: CAMK2B; 1 uM; read-out: Percent Control (%). A digest of the protocol: as §1

Assay [8] deals with T8, scanMAX Kinase assay panel (Homo sapiens, UniProt Q9HAZ1).
T8 construct: purchased DiscoverX
The conditions noted are these: CLK4; 1 uM; read-out: Percent Control (%). A digest of the protocol: as §1

Assay [9] has as its target T9, scanMAX Kinase assay panel (Homo sapiens, UniProt Q9HCP0).
T9 construct: purchased DiscoverX
The conditions noted are these: CSNK1G1; 1 uM; read-out: Percent Control (%). A digest of the protocol:
as §1

Assay [10] addresses T10, scanMAX Kinase assay panel (Homo sapiens, UniProt Q9NY57).
T10 construct: purchased DiscoverX
The conditions noted are these: YANK2; 1 uM; read-out: Percent Control (%). The method in brief: as §1

The target in assay [11] is T11, scanMAX Kinase assay panel (Homo sapiens, UniProt Q9NYY3).
T11 construct: purchased DiscoverX
The conditions noted are these: PLK2; 1 uM; read-out: Percent Control (%). The method in brief: as §1

Assay [12] addresses T12, scanMAX Kinase assay panel (Homo sapiens, UniProt Q9UBF8).
T12 construct: purchased DiscoverX
The conditions noted are these: PIK4CB; 1 uM; read-out: Percent Control (%). The method in brief:
as §1

In assay [13] the target is T13, scanMAX Kinase assay panel (Homo sapiens, UniProt Q9UPE1).
T13 construct: purchased DiscoverX
The conditions noted are these: SRPK3; 1 uM; read-out: Percent Control (%). A digest of the protocol: as §1

Like-named read-outs stand apart in the source and are kept apart here.

T7 sequence (Q13554 whole entry): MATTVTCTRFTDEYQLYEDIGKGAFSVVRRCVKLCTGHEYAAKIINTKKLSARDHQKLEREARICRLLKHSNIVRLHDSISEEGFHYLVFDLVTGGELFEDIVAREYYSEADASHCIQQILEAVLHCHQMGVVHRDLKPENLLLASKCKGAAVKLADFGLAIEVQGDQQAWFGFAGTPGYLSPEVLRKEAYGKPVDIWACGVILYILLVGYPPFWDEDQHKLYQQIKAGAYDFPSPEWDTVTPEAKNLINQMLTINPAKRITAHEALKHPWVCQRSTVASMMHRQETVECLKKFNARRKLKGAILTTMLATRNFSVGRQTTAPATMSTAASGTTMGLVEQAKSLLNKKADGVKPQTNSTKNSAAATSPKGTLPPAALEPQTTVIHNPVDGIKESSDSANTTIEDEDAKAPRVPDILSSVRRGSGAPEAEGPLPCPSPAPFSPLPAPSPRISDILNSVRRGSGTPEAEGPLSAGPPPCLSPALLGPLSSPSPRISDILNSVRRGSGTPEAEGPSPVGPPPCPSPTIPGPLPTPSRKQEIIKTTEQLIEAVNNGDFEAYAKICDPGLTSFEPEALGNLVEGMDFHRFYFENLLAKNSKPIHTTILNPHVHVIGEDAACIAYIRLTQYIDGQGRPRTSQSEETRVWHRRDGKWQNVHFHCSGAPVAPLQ
T11 sequence (Q9NYY3 whole entry): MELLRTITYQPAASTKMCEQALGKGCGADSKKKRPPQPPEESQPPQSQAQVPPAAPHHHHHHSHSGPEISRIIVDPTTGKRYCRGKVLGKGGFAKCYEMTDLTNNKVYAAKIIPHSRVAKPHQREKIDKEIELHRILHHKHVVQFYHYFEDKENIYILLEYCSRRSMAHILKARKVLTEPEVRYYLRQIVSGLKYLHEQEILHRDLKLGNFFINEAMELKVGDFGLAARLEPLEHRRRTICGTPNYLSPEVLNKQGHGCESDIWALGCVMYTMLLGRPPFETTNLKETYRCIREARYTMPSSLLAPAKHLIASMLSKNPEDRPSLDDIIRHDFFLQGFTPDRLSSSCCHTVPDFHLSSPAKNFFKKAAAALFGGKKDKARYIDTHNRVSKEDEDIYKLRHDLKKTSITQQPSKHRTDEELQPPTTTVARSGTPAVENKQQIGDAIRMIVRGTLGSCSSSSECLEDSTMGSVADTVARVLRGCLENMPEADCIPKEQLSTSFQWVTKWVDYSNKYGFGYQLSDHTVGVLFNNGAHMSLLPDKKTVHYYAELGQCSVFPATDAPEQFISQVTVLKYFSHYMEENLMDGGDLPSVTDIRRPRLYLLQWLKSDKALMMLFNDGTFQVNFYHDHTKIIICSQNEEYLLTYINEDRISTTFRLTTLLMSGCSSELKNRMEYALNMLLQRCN
T3 sequence (P07333 20-972): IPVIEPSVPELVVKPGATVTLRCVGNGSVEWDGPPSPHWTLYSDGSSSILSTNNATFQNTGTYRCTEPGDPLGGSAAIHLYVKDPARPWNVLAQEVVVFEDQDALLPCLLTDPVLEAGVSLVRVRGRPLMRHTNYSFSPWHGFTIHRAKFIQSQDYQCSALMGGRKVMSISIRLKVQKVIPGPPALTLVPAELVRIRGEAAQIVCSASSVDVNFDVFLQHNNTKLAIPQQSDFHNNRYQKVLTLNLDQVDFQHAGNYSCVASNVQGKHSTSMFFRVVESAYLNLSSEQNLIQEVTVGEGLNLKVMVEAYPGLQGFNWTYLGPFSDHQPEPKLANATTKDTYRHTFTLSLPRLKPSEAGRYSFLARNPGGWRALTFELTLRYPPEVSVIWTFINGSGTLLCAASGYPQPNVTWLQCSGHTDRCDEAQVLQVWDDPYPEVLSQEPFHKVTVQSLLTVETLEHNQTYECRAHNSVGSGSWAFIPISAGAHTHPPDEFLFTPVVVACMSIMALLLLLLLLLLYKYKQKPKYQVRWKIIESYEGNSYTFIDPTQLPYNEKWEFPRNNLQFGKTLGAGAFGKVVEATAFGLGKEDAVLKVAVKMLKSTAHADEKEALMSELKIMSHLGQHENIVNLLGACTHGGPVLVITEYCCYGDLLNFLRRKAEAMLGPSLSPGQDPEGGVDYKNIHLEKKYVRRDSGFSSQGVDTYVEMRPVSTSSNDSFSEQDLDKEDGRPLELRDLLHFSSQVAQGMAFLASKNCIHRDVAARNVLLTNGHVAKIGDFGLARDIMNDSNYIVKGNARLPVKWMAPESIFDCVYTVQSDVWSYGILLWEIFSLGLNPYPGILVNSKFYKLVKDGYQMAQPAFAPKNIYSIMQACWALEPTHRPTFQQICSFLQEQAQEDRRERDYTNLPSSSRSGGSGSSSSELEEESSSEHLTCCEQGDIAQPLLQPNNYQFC
T13 sequence (Q9UPE1 whole entry): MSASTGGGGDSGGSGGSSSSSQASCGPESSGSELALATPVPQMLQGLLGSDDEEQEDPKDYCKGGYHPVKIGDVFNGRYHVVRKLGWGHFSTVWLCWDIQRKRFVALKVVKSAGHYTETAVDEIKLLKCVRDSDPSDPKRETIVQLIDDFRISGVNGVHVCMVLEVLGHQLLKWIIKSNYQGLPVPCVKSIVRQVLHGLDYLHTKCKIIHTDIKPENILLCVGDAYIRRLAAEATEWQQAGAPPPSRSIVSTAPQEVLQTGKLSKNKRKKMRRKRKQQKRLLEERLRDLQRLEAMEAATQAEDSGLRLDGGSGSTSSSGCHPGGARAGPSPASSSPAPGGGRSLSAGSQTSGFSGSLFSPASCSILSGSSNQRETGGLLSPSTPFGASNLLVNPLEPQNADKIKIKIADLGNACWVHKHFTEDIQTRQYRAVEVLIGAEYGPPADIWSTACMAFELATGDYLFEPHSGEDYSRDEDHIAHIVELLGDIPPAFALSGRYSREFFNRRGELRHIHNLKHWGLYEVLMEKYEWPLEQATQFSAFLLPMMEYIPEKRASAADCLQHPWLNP
T9 sequence (Q9HCP0 whole entry): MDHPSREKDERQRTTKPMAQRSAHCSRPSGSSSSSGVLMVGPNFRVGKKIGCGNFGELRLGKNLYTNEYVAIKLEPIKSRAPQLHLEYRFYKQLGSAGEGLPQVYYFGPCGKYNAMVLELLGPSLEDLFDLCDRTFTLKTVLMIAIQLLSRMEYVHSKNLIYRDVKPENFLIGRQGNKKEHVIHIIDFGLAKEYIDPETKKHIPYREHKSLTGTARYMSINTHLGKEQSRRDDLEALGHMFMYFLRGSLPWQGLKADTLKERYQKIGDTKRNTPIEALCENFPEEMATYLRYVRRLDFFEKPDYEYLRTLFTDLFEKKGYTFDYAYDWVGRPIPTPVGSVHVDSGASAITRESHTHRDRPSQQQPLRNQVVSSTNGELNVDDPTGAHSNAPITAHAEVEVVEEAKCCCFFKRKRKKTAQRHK
T8 sequence (Q9HAZ1 whole entry): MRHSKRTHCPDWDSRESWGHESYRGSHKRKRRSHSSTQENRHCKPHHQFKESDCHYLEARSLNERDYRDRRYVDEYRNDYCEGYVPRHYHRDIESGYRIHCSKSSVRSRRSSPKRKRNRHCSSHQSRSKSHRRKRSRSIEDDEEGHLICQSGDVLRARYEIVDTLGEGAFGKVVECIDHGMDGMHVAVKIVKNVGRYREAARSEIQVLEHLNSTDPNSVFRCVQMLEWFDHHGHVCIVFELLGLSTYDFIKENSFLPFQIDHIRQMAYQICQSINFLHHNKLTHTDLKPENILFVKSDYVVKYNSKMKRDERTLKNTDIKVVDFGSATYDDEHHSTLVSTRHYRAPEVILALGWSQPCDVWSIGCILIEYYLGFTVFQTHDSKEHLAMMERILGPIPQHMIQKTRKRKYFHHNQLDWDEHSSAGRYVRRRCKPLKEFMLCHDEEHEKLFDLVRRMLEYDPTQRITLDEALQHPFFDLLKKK
T12 sequence (Q9UBF8 whole entry): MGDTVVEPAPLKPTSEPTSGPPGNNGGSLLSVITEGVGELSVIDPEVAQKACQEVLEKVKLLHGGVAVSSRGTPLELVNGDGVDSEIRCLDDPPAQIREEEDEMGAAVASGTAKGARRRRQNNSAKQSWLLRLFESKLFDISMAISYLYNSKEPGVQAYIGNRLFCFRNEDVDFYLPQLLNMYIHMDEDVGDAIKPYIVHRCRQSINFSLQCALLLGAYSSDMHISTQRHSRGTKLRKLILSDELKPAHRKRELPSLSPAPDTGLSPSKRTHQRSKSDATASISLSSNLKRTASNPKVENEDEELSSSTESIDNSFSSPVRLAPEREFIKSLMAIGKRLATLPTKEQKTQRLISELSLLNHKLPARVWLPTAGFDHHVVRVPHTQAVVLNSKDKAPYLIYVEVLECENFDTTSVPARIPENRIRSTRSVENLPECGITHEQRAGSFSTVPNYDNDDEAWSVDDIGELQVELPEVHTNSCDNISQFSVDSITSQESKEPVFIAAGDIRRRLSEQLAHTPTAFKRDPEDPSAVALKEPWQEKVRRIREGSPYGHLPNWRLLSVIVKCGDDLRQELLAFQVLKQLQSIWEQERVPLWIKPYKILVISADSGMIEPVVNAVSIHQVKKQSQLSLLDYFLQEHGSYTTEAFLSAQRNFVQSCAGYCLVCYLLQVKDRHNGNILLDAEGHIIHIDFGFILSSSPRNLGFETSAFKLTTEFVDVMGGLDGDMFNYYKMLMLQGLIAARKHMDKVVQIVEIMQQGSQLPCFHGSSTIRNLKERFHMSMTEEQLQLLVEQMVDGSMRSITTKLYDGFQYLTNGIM
T10 sequence (Q9NY57 whole entry): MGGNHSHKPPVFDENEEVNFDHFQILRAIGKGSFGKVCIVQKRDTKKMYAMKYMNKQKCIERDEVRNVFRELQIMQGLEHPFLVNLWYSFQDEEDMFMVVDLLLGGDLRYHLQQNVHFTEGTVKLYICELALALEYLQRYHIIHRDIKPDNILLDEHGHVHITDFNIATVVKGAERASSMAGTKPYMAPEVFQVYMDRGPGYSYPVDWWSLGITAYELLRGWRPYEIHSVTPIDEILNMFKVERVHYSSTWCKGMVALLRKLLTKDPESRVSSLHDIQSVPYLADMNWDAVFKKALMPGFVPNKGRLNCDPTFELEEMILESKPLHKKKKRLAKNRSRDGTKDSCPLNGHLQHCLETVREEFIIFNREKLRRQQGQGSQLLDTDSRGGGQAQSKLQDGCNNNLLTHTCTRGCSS

In the case of `Cc1ccc(C(=O)Nc2ccc(CN3CCN(C)CC3)c(C(F)(F)F)c2)cc1C#Cc1cnc2c(Nc3cnn(C)c3)cccn12` [Example 1, 4-methyl-3-((8-((1-methyl-1H-pyrazol-4-yl)amino)imidazo[1,2-a]pyridin-3-yl)ethynyl)-N-(4-((4-methylpiperazin-1-yl)methyl)-3-(trifluoromethyl)phenyl)benzamide], the remaining binding at 1 µM in [1] is 79%; in assay [2] (ABL1 (Q252H)-nonphosphorylated), 7%; in assay [2] (ABL1 (Q252H)-phosphorylated) it was 0%; in [3] (CSF1R-autoinhibited), 74%; in assay [3] (CSF1R) it was 0%; in assay [4] it was 47%. For the same compound, the remaining binding at 1 µM in assay [5] turned out to be 89%; in assay [6], 25%; in assay [7], 76%; in [8], 10%; in [9] it was 73%; in assay [10], 100%. Moreover, the figures for the remaining binding at 1 µM in assay [11], in assay [12] and in assay [13] were 84%, 88% and 82%, respectively.

With `Cc1ccc(NC(=O)C2(C(=O)Nc3ccc(F)cc3)CC2)cc1C#Cc1cnc2c(Nc3cnn(C(C)C)c3)cccn12` [Example 78], the remaining binding at 1 µM in assay [1] stood at 100%; in assay [2] (ABL1 (Q252H)-nonphosphorylated) it was 6%; in assay [2] (ABL1 (Q252H)-phosphorylated), 91%; in assay [3] (CSF1R-autoinhibited), 91%; in assay [3] (CSF1R), 2%; in assay [4], 93%. For the same compound, the remaining binding at 1 µM in assay [5] is 100%; in assay [6] it was 79%; in assay [7], 100%; in assay [8] it was 100%; in assay [9], 100%; in assay [10], 100%. For the same compound, the values for the remaining binding at 1 µM in [11], in [12] and in assay [13] were 62%, 99% and 100%, respectively.

As to `Cc1cn(-c2cc(NC(=O)c3ccc(C)c(C#Cc4cnc5c(Nc6cnn(C)c6)cccn45)c3)cc(C(F)(F)F)c2)cn1` [Example 12, 4-methyl-N-(3-(4-methyl-1H-imidazol-1-yl)-5-(trifluoromethyl)phenyl)-3-((8-((1-methyl-1H-pyrazol-4-yl)amino)imidazo[1,2-a]pyridin-3-yl)ethynyl)benzamide], the remaining binding at 1 µM in assay [1] amounted to 85%; in [2] (ABL1 (Q252H)-nonphosphorylated), 3%; in assay [2] (ABL1 (Q252H)-phosphorylated), 14%; in assay [3] (CSF1R-autoinhibited), 100%; in assay [3] (CSF1R), 0%; in assay [4], 95%. The remaining binding at 1 µM in assay [5] came out at 94%; in [6] it was 82%; in [7], 96%; in [8], 100%; in assay [9], 95%; in assay [10], 99%. Moreover, the remaining binding at 1 µM in assay [11], in [12] and in assay [13] was 100% in each case.
